# From paper PMC11258486, “Phase 1 dose escalation study of the MDM2 inhibitor milademetan as monotherapy and in combination with azacitidine in patients with myeloid malignancies” (Cancer Medicine, 2024)
# Where “and” joins values, the source holds several entries; their conditions need not be identical. Equal entries are not always repeated. Structures can show the parent of a compound that is named as a salt.
# Test system: patients with relapsed or refractory acute myeloid leukemia or high‐risk myelodysplastic syndromes
# Method: This was a phase 1, open‐label, non‐randomized dose escalation study of milademetan as monotherapy (Part 1) or in combination with AZA (Part 1A; ClinicalTrials.gov identifier: NCT02319369).
# Dose escalation of milademetan to determine the maximum tolerated dose (MTD) was guided by a Bayesian logistic regression model (BLRM) following escalation with overdose control principle with a starting dose of 60 mg based on safety and tolerability data from the first‐in‐human study of milademetan in solid tumors or lymphoma.[20]
# In Part 1, 9 escalating dose cohorts (Figure S1) were investigated.
# In Part 1A, milademetan was given in combination with AZA (75 mg/m^2 dose administered subcutaneously or intravenously on Days 1–7) with 2 dosing schedules of milademetan: in Cohorts 10 and 12, milademetan was administered QD for 10 days (Days 5–14; 160 and 200 mg, respectively); in Cohorts 11 and 13 milademetan was given QD for 7 days (Days 8–14; 160 and 200 mg, respectively).
# Safety was the primary endpoint of the study and included treatment‐emergent adverse events (TEAE), serious adverse events (SAE), dose‐limiting toxicities (DLT), physical examination findings, and clinical laboratory values. TEAE were categorized according to the Medical Dictionary for Regulatory Activities (MeDRA) v17.0 and graded according to the National Cancer Institute‐Common Terminology for Adverse Events (NCI‐CTCAE) v5.0. Participants were followed up until 30 days after completion of study treatment. A DLT was defined as any TEAE of grade ≥3 not attributable to disease or disease‐related processes occurring during Cycle 1 in each dose‐level cohort.
# The final MTD for each dosing regimen (QD 21/28 dosing and others) was decided based on considerations of the respective MTD estimated by the BLRM and on an overall assessment of safety data from subsequent cycles and pharmacokinetics (PK)/pharmacodynamics (PD) information collected at all different doses tested.
# Cohorts of ≥3 DLT evaluable participants were enrolled per dose level, and the dose escalation decisions were guided by BLRM, governed by escalation with overdose control principle.
# [1] = not assessed as related to milademetan
structure (smiles),measurement,setting,value
"CC1(C)CCC2(CC1)N[C@@H](C(=O)N[C@@H]1CC[C@@H](C(N)=O)OC1)[C@H](c1ccnc(Cl)c1F)[C@]21C(=O)Nc2cc(Cl)ccc21 [Milademetan monotherapy, milademetan tosylate hydrate]","Abdominal pain, TEAE Grade ≥3","human, in vivo",1 (2) n (%)
same,"Cough, TEAE Grade ≥3","human, in vivo",0 n (%)
same,"Cough, TEAE all grades","human, in vivo",3 (5) n (%)
same,"Decreased appetite, TEAE Grade ≥3","human, in vivo",1 (2) n (%)
same,"Decreased appetite, TEAE all grades","human, in vivo",13 (23) n (%)
same,"Dehydration, TEAE Grade ≥3","human, in vivo",1 (2) n (%)
same,"Dehydration, TEAE all grades","human, in vivo",6 (11) n (%)
same,"Depression, TEAE Grade ≥3","human, in vivo",0 n (%)
same,"Depression, TEAE all grades","human, in vivo",2 (4) n (%)
same,"Device‐related infection, TEAE Grade ≥3","human, in vivo",0 n (%)
same,"Device‐related infection, TEAE all grades","human, in vivo",0 n (%)
same,"Diarrhea, TEAE Grade ≥3","human, in vivo",3 (5) n (%)
same,"Diarrhea, TEAE all grades","human, in vivo",32 (56) n (%)
same,"Diarrhea, most common (>20%) TEAE","human, in vivo",25 [44%] n [%]
same,"Dizziness, TEAE Grade ≥3","human, in vivo",1 (2) n (%)
same,"Dizziness, TEAE all grades","human, in vivo",6 (11) n (%)
same,"Dyspnea, TEAE Grade ≥3","human, in vivo",0 n (%)
same,"Dyspnea, TEAE all grades","human, in vivo",8 (14) n (%)
same,"Epistaxis, TEAE Grade ≥3","human, in vivo",0 n (%)
same,"Epistaxis, TEAE all grades","human, in vivo",1 (2) n (%)
same,"Escherichia infection, TEAE Grade ≥3","human, in vivo",0 n (%)
same,"Escherichia infection, TEAE all grades","human, in vivo",0 n (%)
same,"Fatigue, TEAE Grade ≥3","human, in vivo",4 (7) n (%)
same,"Hyperuricemia, TEAE Grade ≥3","human, in vivo",2 (4) n (%)
same,"Hyperuricemia, TEAE all grades","human, in vivo",6 (11) n (%)
same,"Hypokalemia, TEAE Grade ≥3","human, in vivo",3 (5) n (%)
same,"Hypokalemia, TEAE all grades","human, in vivo",12 (21) n (%)
same,"Hypomagnesemia, TEAE Grade ≥3","human, in vivo",0 n (%)
same,"Hypomagnesemia, TEAE all grades","human, in vivo",9 (16) n (%)
same,"Hyponatremia, TEAE Grade ≥3","human, in vivo",2 (4) n (%)
same,"Hyponatremia, TEAE all grades","human, in vivo",2 (4) n (%)
same,"Hypophosphatemia, TEAE Grade ≥3","human, in vivo",0 n (%)
same,"Hypophosphatemia, TEAE all grades","human, in vivo",0 n (%)
same,"Hypotension, TEAE Grade ≥3","human, in vivo",2 (4) n (%)
same,"Hypotension, TEAE all grades","human, in vivo",9 (16) n (%)
same,"Increased ALT, TEAE Grade ≥3","human, in vivo",0 n (%)
same,"Increased ALT, TEAE all grades","human, in vivo",1 (2) n (%)
same,"Insomnia, TEAE Grade ≥3","human, in vivo",0 n (%)
same,"Insomnia, TEAE all grades","human, in vivo",4 (7) n (%)
same,"Lung infection, TEAE Grade ≥3","human, in vivo",11 (19) n (%)
same,"Lung infection, TEAE all grades","human, in vivo",11 (19) n (%)
same,"Maculopapular rash, TEAE Grade ≥3","human, in vivo",0 n (%)
same,"Maculopapular rash, TEAE all grades","human, in vivo",2 (4) n (%)
same,"Muscular weakness, TEAE all grades","human, in vivo",2 (4) n (%)
same,"Myalgia, TEAE Grade ≥3","human, in vivo",0 n (%)
same,"Myalgia, TEAE all grades","human, in vivo",1 (2) n (%)
same,"Nausea, TEAE Grade ≥3","human, in vivo",4 (7) n (%)
same,"Nausea, TEAE all grades","human, in vivo",39 (68) n (%)
same,"Nausea, most common (>20%) TEAE","human, in vivo",32 [56%] n [%]
same,"Neutropenia, TEAE Grade ≥3","human, in vivo",10 (18) n (%)
same,"Neutropenia, TEAE all grades","human, in vivo",10 (18) n (%)
same,"Oropharyngeal pain, TEAE Grade ≥3","human, in vivo",0 n (%)
same,"Oropharyngeal pain, TEAE all grades","human, in vivo",3 (5) n (%)
same,"Pancytopenia, TEAE Grade ≥3","human, in vivo",0 n (%)
same,"Pancytopenia, TEAE all grades","human, in vivo",0 n (%)
same,Participants with DLT of cellulitis,"human, in vivo",1 participant
same,Participants with DLT of diarrhea,"human, in vivo",1 participant
same,Participants with DLT of fatigue,"human, in vivo",1 participant
same,Participants with DLT of hypokalemia,"human, in vivo",1 participant
same,Participants with DLT of nausea,"human, in vivo",3 participants
same,Participants with DLT of renal failure,"human, in vivo",1 participant
same,Participants with DLT of vomiting,"human, in vivo",1 participant
same,"Peripheral edema, TEAE Grade ≥3","human, in vivo",0 n (%)
same,"Peripheral edema, TEAE all grades","human, in vivo",14 (25) n (%)
same,"Pneumonia, TEAE Grade ≥3","human, in vivo",6 (11) n (%)
same,"Pneumonia, TEAE all grades","human, in vivo",9 (16) n (%)
same,"Pyrexia, TEAE Grade ≥3","human, in vivo",1 (2) n (%)
same,"Pyrexia, TEAE all grades","human, in vivo",5 (9) n (%)
same,"Rhinorrhea, TEAE Grade ≥3","human, in vivo",0 n (%)
same,"Rhinorrhea, TEAE all grades","human, in vivo",1 (2) n (%)
same,SAE,"human, in vivo",39 (68.4) n (%)
same,SAE: bacteremia,"human, in vivo",3 [5%] n [%]
same,SAE: cellulitis,"human, in vivo",3 [5%] n [%]
same,SAE: febrile neutropenia,"human, in vivo",5 [9%] n [%]
same,SAE: lung infection,"human, in vivo",9 [16%] n [%]
same,SAE: pneumonia,"human, in vivo",7 [12%] n [%]
same,SAE: pyrexia,"human, in vivo",3 [5%] n [%]
same,SAE: sepsis,"human, in vivo",7 [12%] n [%]
same,"Sepsis, TEAE Grade ≥3","human, in vivo",8 (14) n (%)
same,"Sepsis, TEAE all grades","human, in vivo",8 (14) n (%)
same,Tolerability relative to MTD,"human, in vivo",exceeded MTD
same,"Vomiting, most common (>20%) TEAE","human, in vivo",15 [26%] n [%]
same,Participants who experienced DLT,in vivo,Eight
same,Dose interruptions due to TEAE,monotherapy arm,12 (21%) n (%)
same,Dose reductions due to TEAE,monotherapy arm,3 (5%) n (%)
same,Maximum tolerated dose (MTD) of milademetan,"monotherapy, QD 21/28 and QD 14/28 dosing schedules",160 mg
same,Event associated with a fatal outcome: intracranial hemorrhage,[1],1 patient
same,Event associated with a fatal outcome: lung infection,[1],2 patients
same,Event associated with a fatal outcome: multi-organ failure,[1],1 patient
same,Event associated with a fatal outcome: pneumonia,[1],1 patient
same,Event associated with a fatal outcome: respiratory failure,[1],1 patient
same,Event associated with a fatal outcome: sepsis,[1],4 patients
same,Milademetan-related TEAE,"per investigator assessment, safety analysis set",47 (82.5) n (%)
same,"Abdominal pain, TEAE all grades",safety analysis set,7 (12) n (%)
same,"Anemia, TEAE Grade ≥3",safety analysis set,9 (16) n (%)
same,"Anemia, TEAE all grades",safety analysis set,13 (23) n (%)
same,"Any TEAE, Grade ≥3",safety analysis set,48 (84%) n (%) and 48 (84) n (%) and 48 (84.2) n (%)
same,"Any TEAE, all grades",safety analysis set,57 n (%) and 57 (100) n (%)
same,"Arthralgia, TEAE Grade ≥3",safety analysis set,0 n (%)
same,"Arthralgia, TEAE all grades",safety analysis set,3 (5) n (%)
same,"Asthenia, TEAE Grade ≥3",safety analysis set,1 (2) n (%)
same,"Asthenia, TEAE all grades",safety analysis set,7 (12) n (%)
same,"Constipation, TEAE Grade ≥3",safety analysis set,0 n (%)
same,"Constipation, TEAE all grades",safety analysis set,3 (5) n (%)
same,"Contusion, TEAE Grade ≥3",safety analysis set,0 n (%)
same,"Contusion, TEAE all grades",safety analysis set,2 (4) n (%)
same,"Fatigue, TEAE all grades",safety analysis set,20 (35) n (%)
same,"Febrile neutropenia, TEAE Grade ≥3",safety analysis set,5 (9) n (%)
same,"Febrile neutropenia, TEAE all grades",safety analysis set,6 (11) n (%)
same,"Fluid overload, TEAE Grade ≥3",safety analysis set,0 n (%)
same,"Fluid overload, TEAE all grades",safety analysis set,2 (4) n (%)
same,"Fungal pneumonia, TEAE Grade ≥3",safety analysis set,2 (4) n (%)
same,"Fungal pneumonia, TEAE all grades",safety analysis set,2 (4) n (%)
same,"Headache, TEAE Grade ≥3",safety analysis set,0 n (%)
same,"Headache, TEAE all grades",safety analysis set,2 (4) n (%)
same,"Hemorrhoids, TEAE Grade ≥3",safety analysis set,1 (2) n (%)
same,"Hemorrhoids, TEAE all grades",safety analysis set,3 (5) n (%)
same,"Malaise, TEAE Grade ≥3",safety analysis set,0 (0) n (%)
same,"Malaise, TEAE all grades",safety analysis set,6 (11) n (%)
same,Milademetan-related Grade ≥3 TEAE,safety analysis set,19 (33%) n (%) and 19 (33.3) n (%)
same,Milademetan-related SAE,safety analysis set,7 (12%) n (%) and 7 (12.3) n (%)
same,Milademetan-related TEAE associated with milademetan discontinuation,safety analysis set,5 (8.8) n (%)
same,"Muscular weakness, TEAE Grade ≥3",safety analysis set,0 n (%)
same,TEAE associated with death,safety analysis set,9 (16%) n (%) and 9 (15.8)^a n (%)
same,TEAE associated with milademetan discontinuation,safety analysis set,13 (23%) n (%) and 13 (22.8) n (%)
same,"Thrombocytopenia, TEAE Grade ≥3",safety analysis set,15 (26) n (%)
same,"Thrombocytopenia, TEAE all grades",safety analysis set,15 (26) n (%)
same,"Vomiting, TEAE Grade ≥3",safety analysis set,2 (4) n (%)
same,"Vomiting, TEAE all grades",safety analysis set,24 (42) n (%)
